In PMC8398847, “Isavuconazole: Thermodynamic Evaluation of Processes Sublimation, Dissolution and Partition in Pharmaceutically Relevant Media” (Molecules, 2021):
≈ marks a conversion by molar mass, not a printed value. Read-outs that look alike come from different tables or passages of the source.

Key:
[1] = Solubility by isothermal saturation (shake flask) method; assay type: physicochemical
Protocol: Solubility of drug was measured by the classical shake flask method at five temperatures: 293, 298, 303, 308 and 313 ± 0.2 K. This method determines the concentration of a test substance in a saturated solution, i.e., in equilibrium with the solid phase at a strictly fixed temperature. The compound studied and the selected solvent were placed into glass ampoules and stirred in an air thermostat.
The solid phase was sedimentated after stirring within 2 h. Then, the solutions were centrifuged using a thermostatic centrifuge Biofuge Stratos (Thermo scientific, Germany) at the appropriate temperature of the experiment for 5 min. The solid phase was removed by filtration using a filter MILLEX®HA 0.22 μm (Millipore, Ireland). The resulting solution, if necessary, was diluted with an appropriate solvent and examined on a Carry 50 spectrophotometer (Varian, Palo Alto, CA, USA, Software Version 3.00 (339)) in the ultraviolet region of the spectrum (operating wavelength range λ = 200–400 nm) with an accuracy of 2–4%.
The experimental value of solubility is an average value of three independent experiments. The absorption maximums for isavuconazole in the selected solvents have been determined at 274 nm in buffers solutions (Figure 4) and as 283 nm in hexane and alcohols (Figure S8). The calibration was carried out at room temperature using the solutions with known concentrations of drug in selected solvents.
The mole fraction concentration was calculated based on molarity (S, mol·L^−1) using Equation (8):(8) x=M2S/S(M2−M1)+1000ρ, where M1 and M2 are the molar masses of […], respectively, and ρ (g·cm^−3) is the density of the pure solvents. Densities of buffers solutions (pH 1.2, 2.0 and 7.4) were measured using densitometer DMA 4500 (Anton Paar, Austria) and published earlier. The values of densities using for conversion are given in Table S4 (Supporting Information).

[2] = Dissolution thermodynamics: ideal solubility, activity coefficients at infinite dilution, excess functions; assay type: physicochemical
Text: The temperature dependence of solute solubility is described by the thermodynamic relationship:(26) lnx=lnxid−lnγ=ΔmH/RT[T−Tm/T]+∫TmT∫TmT(CpL−CpS)dT/RT^2−lnγ where x, xid, γ, Tm, ΔmH, ΔCp=CpL−CpS , R, and T represent the solubility mole fraction of the solute in solution, ideal mole fraction solubility of the solute, activity coefficient of the solute in solution, melting temperature of the solute, enthalpy of melting of the pure solute, differential molar heat capacity of the pure solute, gas constant and temperature, respectively. If the solubility or equilibrium mole fraction of a compound in solvents studied is low, it is assumed that the last term in Equation (26) denotes the infinite dilution activity coefficient lnγ^∞, which can be expressed as:(27) lnγ∞=ΔHsolE/RT−ΔSsolE/R where ΔHsolE and ΔSsolE represent the partial molar excess enthalpy, and partial molar excess entropy, respectively, and are assumed to be temperature independent. As the quantity ΔCp is assumed to be negligible and considered to be zero [52], substituting ΔCp = 0 into Equation (26) simplifies to (28) lnxid=−ΔHm/RTmln[Tm/T]

C[C@@H](c1nc(-c2ccc(C#N)cc2)cs1)[C@](O)(Cn1cncn1)c1cc(F)ccc1F [IVZ, Isavuconazole]
solubility ([1]; aqueous buffer solutions, pH 7.4, buffers pH 7.4, 2.0, 1.2, 298.15 K, read-out: solubility in aqueous buffer solutions): 8.13 to 42.4 µM (≈ 3.56 to 18.5 µg/mL)
solubility ([1]; buffer pH 7.4, pH 7.4, aqueous buffer, thermodynamic from solid, buffer pH 7.4, 293.15 K, read-out: solubility S·10^6): 6.67 µM (≈ 2.92 µg/mL)
solubility ([1]; buffer pH 7.4, pH 7.4, aqueous buffer, thermodynamic from solid, buffer pH 7.4, 298.15 K, read-out: solubility S·10^6): 8.13 µM (≈ 3.56 µg/mL)
solubility ([1]; buffer pH 7.4, pH 7.4, aqueous buffer, thermodynamic from solid, buffer pH 7.4, 303.15 K, read-out: solubility S·10^6): 10 µM (≈ 4.37 µg/mL)
solubility ([1]; buffer pH 7.4, pH 7.4, aqueous buffer, thermodynamic from solid, buffer pH 7.4, 308.15 K, read-out: solubility S·10^6): 12.2 µM (≈ 5.32 µg/mL)
solubility ([1]; buffer pH 7.4, pH 7.4, aqueous buffer, thermodynamic from solid, buffer pH 7.4, 313.15 K, read-out: solubility S·10^6): 14.5 µM (≈ 6.37 µg/mL)
solubility in buffer pH 7.4 lower than in pH 1.2 ([1]; buffer pH 7.4 vs pH 1.2): 80%
solubility of uncharged forms in buffer pH 7.4 relative to ionized forms in buffer pH 1.2 ([1]; buffer pH 7.4 vs pH 1.2): five times lower
solubility ([1]; ethanol, 298.15 K, read-out: solubility): 180000 µM (≈ 78700 µg/mL)
solubility ([1]; hexane, organic solvent or mixture, thermodynamic from solid, hexane, 293.15 K, read-out: solubility S·10^4): 423 µM (≈ 185 µg/mL)
solubility ([1]; hexane, organic solvent or mixture, thermodynamic from solid, hexane, 298.15 K, read-out: solubility S·10^4): 537 µM (≈ 235 µg/mL)
solubility ([1]; hexane, organic solvent or mixture, thermodynamic from solid, hexane, 303.15 K, read-out: solubility S·10^4): 677 µM (≈ 296 µg/mL)
solubility ([1]; hexane, organic solvent or mixture, thermodynamic from solid, hexane, 308.15 K, read-out: solubility S·10^4): 847 µM (≈ 371 µg/mL)
solubility ([1]; hexane, organic solvent or mixture, thermodynamic from solid, hexane, 313.15 K, read-out: solubility S·10^4): 1050 µM (≈ 459 µg/mL)
solubility ([1]; seven solvents (buffers pH 1.2, 2.0, 7.4; hexane; alcohols), seven solvents, 293.15 to 313.15 K, read-out: solubility, span over solvents): 6.7 to 300000 µM (≈ 2.93 to 131000 µg/mL)
lnγ^∞ ([2]; 1-octanol, 293.15 K): 2.40
G^E ([2]; 1-octanol, 298.15 K): 5.85 ± 0.2 kJ/mol
H^E ([2]; 1-octanol, 298.15 K): 3.62 ± 0.1 kJ/mol
S^E ([2]; 1-octanol, 298.15 K): −7.5 ± 0.3 J·mol^−1·K^−1
TS^E ([2]; 1-octanol, 298.15 K): -2.23 kJ/mol
lnγ^∞ ([2]; 1-octanol, 298.15 K): 2.36
ςH^E ([2]; 1-octanol, 298.15 K): 61.9%
ςTS^E ([2]; 1-octanol, 298.15 K): 38.1%
lnγ^∞ ([2]; 1-octanol, 303.15 K): 2.34
lnγ^∞ ([2]; 1-octanol, 308.15 K): 2.32
lnγ^∞ ([2]; 1-octanol, 313.15 K): 2.30
lnγ^∞ ([2]; 1-propanol, 293.15 K): 2.16
G^E ([2]; 1-propanol, 298.15 K): 5.25 ± 0.2 kJ/mol
H^E ([2]; 1-propanol, 298.15 K): 4.97 ± 0.1 kJ/mol
S^E ([2]; 1-propanol, 298.15 K): −0.9 ± 0.04 J·mol^−1·K^−1
TS^E ([2]; 1-propanol, 298.15 K): -0.28 kJ/mol
lnγ^∞ ([2]; 1-propanol, 298.15 K): 2.12
ςH^E ([2]; 1-propanol, 298.15 K): 94.7%
ςTS^E ([2]; 1-propanol, 298.15 K): 5.3%
lnγ^∞ ([2]; 1-propanol, 303.15 K): 2.09
lnγ^∞ ([2]; 1-propanol, 308.15 K): 2.06
lnγ^∞ ([2]; 1-propanol, 313.15 K): 2.03
lnγ^∞ ([2]; buffer pH 1.2, 293.15 K): 11.51
G^E ([2]; buffer pH 1.2, 298.15 K): 28.6 ± 0.5 kJ/mol
H^E ([2]; buffer pH 1.2, 298.15 K): -6.43 ± 0.1 kJ/mol
S^E ([2]; buffer pH 1.2, 298.15 K): −117.5 ± 4.1 J·mol^−1·K^−1
TS^E ([2]; buffer pH 1.2, 298.15 K): -35.03 kJ/mol
lnγ^∞ ([2]; buffer pH 1.2, 298.15 K): 11.55
ςH^E ([2]; buffer pH 1.2, 298.15 K): 15.3%
ςTS^E ([2]; buffer pH 1.2, 298.15 K): 84.7%
lnγ^∞ ([2]; buffer pH 1.2, 303.15 K): 11.59
lnγ^∞ ([2]; buffer pH 1.2, 308.15 K): 11.64
lnγ^∞ ([2]; buffer pH 1.2, 313.15 K): 11.67
lnγ^∞ ([2]; buffer pH 2.0, 293.15 K): 12.82
G^E ([2]; buffer pH 2.0, 298.15 K): 31.7 ± 0.6 kJ/mol
H^E ([2]; buffer pH 2.0, 298.15 K): 5.20 ± 0.3 kJ/mol
S^E ([2]; buffer pH 2.0, 298.15 K): −88.9 ± 5.1 J·mol^−1·K^−1
TS^E ([2]; buffer pH 2.0, 298.15 K): -26.50 kJ/mol
lnγ^∞ ([2]; buffer pH 2.0, 298.15 K): 12.80
ςH^E ([2]; buffer pH 2.0, 298.15 K): 16.4%
ςTS^E ([2]; buffer pH 2.0, 298.15 K): 83.6%
lnγ^∞ ([2]; buffer pH 2.0, 303.15 K): 12.76
lnγ^∞ ([2]; buffer pH 2.0, 308.15 K): 12.72
lnγ^∞ ([2]; buffer pH 2.0, 313.15 K): 12.69
lnγ^∞ ([2]; buffer pH 7.4, 293.15 K): 13.26
G^E ([2]; buffer pH 7.4, 298.15 K): 32.7 ± 0.6 kJ/mol
H^E ([2]; buffer pH 7.4, 298.15 K): 7.10 ± 0.1 kJ/mol
S^E ([2]; buffer pH 7.4, 298.15 K): −85.9 ±2.9 J·mol^−1·K^−1
TS^E ([2]; buffer pH 7.4, 298.15 K): -25.6 kJ/mol
lnγ^∞ ([2]; buffer pH 7.4, 298.15 K): 13.21
ςH^E ([2]; buffer pH 7.4, 298.15 K): 21.7%
ςTS^E ([2]; buffer pH 7.4, 298.15 K): 78.3%
lnγ^∞ ([2]; buffer pH 7.4, 303.15 K): 13.15
lnγ^∞ ([2]; buffer pH 7.4, 308.15 K): 13.11
lnγ^∞ ([2]; buffer pH 7.4, 313.15 K): 13.08
entropy term ζTS^E ([2]; buffer solutions): > 78%
lnγ^∞ ([2]; ethanol, 293.15 K): 2.00
G^E ([2]; ethanol, 298.15 K): 4.83 ± 0.1 kJ/mol
H^E ([2]; ethanol, 298.15 K): 7.21 ± 0.1 kJ/mol
S^E ([2]; ethanol, 298.15 K): 8.0 ± 0.3 J·mol^−1·K^−1
TS^E ([2]; ethanol, 298.15 K): 2.38 kJ/mol
lnγ^∞ ([2]; ethanol, 298.15 K): 1.95
ςH^E ([2]; ethanol, 298.15 K): 75.2%
ςTS^E ([2]; ethanol, 298.15 K): 24.8%
lnγ^∞ ([2]; ethanol, 303.15 K): 1.91
lnγ^∞ ([2]; ethanol, 308.15 K): 1.86
lnγ^∞ ([2]; ethanol, 313.15 K): 1.81
lnγ^∞ ([2]; hexane, 293.15 K): 7.12
G^E ([2]; hexane, 298.15 K): 17.4 ± 0.3 kJ/mol
H^E ([2]; hexane, 298.15 K): 12.69 ± 0.1 kJ/mol
S^E ([2]; hexane, 298.15 K): −15.8 ± 0.4 J·mol^−1·K^−1
TS^E ([2]; hexane, 298.15 K): -4.71 kJ/mol
lnγ^∞ ([2]; hexane, 298.15 K): 7.03
ςH^E ([2]; hexane, 298.15 K): 72.9%
ςTS^E ([2]; hexane, 298.15 K): 27.1%
lnγ^∞ ([2]; hexane, 303.15 K): 6.95
lnγ^∞ ([2]; hexane, 308.15 K): 6.86
lnγ^∞ ([2]; hexane, 313.15 K): 6.79
